Target: T1, PDK1 (Homo sapiens, UniProt O15530)
T1 construct: release a DNA fragment encoding amino acids 52-556 of PDK1; made in house; host or cells: Sf9 insect cells (baculovirus)
T1 sequence (O15530 52-556): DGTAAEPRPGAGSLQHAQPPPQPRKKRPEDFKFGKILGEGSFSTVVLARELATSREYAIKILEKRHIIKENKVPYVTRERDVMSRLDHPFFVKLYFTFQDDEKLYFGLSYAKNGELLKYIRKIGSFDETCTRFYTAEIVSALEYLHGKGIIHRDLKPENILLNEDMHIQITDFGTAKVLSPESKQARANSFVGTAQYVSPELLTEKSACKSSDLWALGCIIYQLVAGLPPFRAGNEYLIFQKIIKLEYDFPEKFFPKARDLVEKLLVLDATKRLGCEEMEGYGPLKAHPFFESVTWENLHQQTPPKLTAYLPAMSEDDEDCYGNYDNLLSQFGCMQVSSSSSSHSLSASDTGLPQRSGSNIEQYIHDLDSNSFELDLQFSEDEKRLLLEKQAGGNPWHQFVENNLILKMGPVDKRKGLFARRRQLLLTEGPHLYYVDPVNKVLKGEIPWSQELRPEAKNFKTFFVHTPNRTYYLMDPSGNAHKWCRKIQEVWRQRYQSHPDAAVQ
Test: PDK1 kinase inhibition, purified GST-PDK1, 33P-ATP filter assay
Format: biochemical
Settings: GST-PDK1, 10.0 μM ATP, casein substrate; read-out: IC50 for PDK1 inhibition (range class)
Excerpt: PDK1 inhibition can be measured as follows: Cloning and expression: pCMV-GST-PDK1 (G Thomas, FMI Basel, as described in Pullen, N. et al., Science, 279:707-710 (1998)) is digested with EcoR1 and Sma1 to release a DNA fragment encoding amino acids 52-556 of PDK1. This is subsequently ligated to the vector pFB-G01-GST1 with compatible ends achieved by restriction digestion with EcoR1 and Stu1. The ligation reaction is transformed into XL-1 Blue bacteria and plated on selective LB agar. Resultant colonies are cultured overnight, plasmid DNA extracted and restriction analysed. Colonies that are found to contain plasmids with the correct insert are taken for large-scale plasmid preparation and subsequent sequence analysis to confirm the expected plasmid sequence.
Production of virus: Transfer vectors containing the kinase domain of PDK1 are transfected into the DH10Bac cell line (GIBCO) and the cells are plated on selective agar plates. Colonies without insertion of the fusion sequence into the viral genome (carried by the bacteria) are blue. Single, white colonies are picked and viral DNA (bacmid) is isolated from the bacteria by standard plasmid purification procedures. Sf9 cells or Sf21 cells (American Type Culture Collection) are then transfected in 25 cm^2 flasks with the viral DNA using Celifectin reagent.
Protein expression in Sf9 cells: Virus-containing media is collected from the transfected cell culture and used for infection to increase its titer. Virus-containing media obtained after two rounds of infection is used for large-scale protein expression. For large-scale protein expression 100 cm^2 round tissue culture plates are seeded with 5×10^7 cells/plate and infected with 1 mL of virus-containing media (approx. 5 MOIs). After 3 days, the cells are scraped off the plate and centrifuged at 500 rpm for 5 minutes. Cell pellets from 10-20, 100 cm^2 plates are resuspended in 50 mL of ice-cold lysis buffer (25 mM Tris-HCl, pH 7.5, 2 mM EDTA, 1% NP-40, 1 mM DTT, 1 mMP MSF). The cells are stirred on ice for 15 minutes and then centrifuged at 5,000 rpms for 20 minutes.
Purification of GST-tagged proteins: The centrifuged cell lysate is loaded onto a 2 mL glutathione-sepharose column (Pharmacia) and washed 3× with 10 mL of 25 mM Tris-HCl, pH 7.5, 2 mM EDTA, 1 mM DTT, 200 mM NaCl. The GST-tagged proteins are then eluted by 10 applications (1 mL each) of 25 mM Tris-HCl, pH 7.5, 10 mM reduced-glutathione, 100 mM NaCl, 1 mM DTT, 10% glycerol and stored at −70° C.
Measure of enzyme activity: Tyrosine protein kinase assays with purified GST-PDK1 are carried out in a final volume of 30 μL containing 100 ng of enzyme protein, 50 mM HEPES, pH 7.6, 10 mM MgCl2, 1 mM DTT, 10 μM Na3VO4, 100 μg/mL casein, 1% DMSO, 0.1 mM EGTA, pH 8.0, 10.0 μM ATP and 0.1 μCi [γ-^33P] ATP. The activity is assayed in the presence or absence of inhibitors [compounds of formula (I)] by measuring the incorporation of ^33P from [γ^33P] ATP into appropriate substrates. The assay is carried out in 96-well plates at ambient temperature for 30 minutes under conditions described below and terminated by the addition of 20 μL of 125 mM EDTA. Subsequently, 40 μL of the reaction mixture are transferred onto Immobilon-PVDF membrane (Millipore) previously soaked for 5 minutes with methanol, rinsed with water, then soaked for 5 minutes with 0.5% H3PO4 and mounted on vacuum manifold with disconnected vacuum source. After spotting all samples, vacuum is connected and each well-rinsed with 200 μL 0.5% H3PO4. Membranes are removed and washed 4× on a shaker with 1.0% H3PO4, once with ethanol. Membranes are counted after drying at ambient temperature, mounting in Packard TopCount 96-well frame, and addition of 10 μl/well of Microscint™ (Packard). IC50 values of compounds of formula (I) are calculated by linear regression analysis of the percentage inhibition of each compound in duplicate, at four concentrations (usually 0.01, 0.1, 1 and 10 μM). […]

SMILES | IC50
COc1cccc(C#Cc2ccc3ncc4ncn(-c5ccc(CCCN)cc5)c4c3c2)c1 [Example 9, 3-{4-[8-(3-Methoxy-phenylethynyl)-imidazo[4,5-c]quinolin-1-yl]-phenyl}-propylamine] | ≤ 500 nM
NCCc1ccc(-n2cnc3cnc4cc(F)c(C#Cc5ccccc5)cc4c32)cc1 [Example 26, 2-[4-(7-Fluoro-8-phenylethynyl-imidazo[4,5-c]quinolin-1-yl)-phenyl]-ethylamine] | 500 to 1000 nM
Cc1nc2cnc3ccc(C#Cc4ccccc4)cc3c2n1-c1ccc(CCN)cc1 [Example 32, 2-[4-(2-Methyl-8-phenylethynyl-imidazo[4,5-c]quinolin-1-yl)-phenyl]-ethylamine] | ≤ 500 nM
NCCc1ccc(-n2cnc3cnc4ccc(C#Cc5cccnc5)cc4c32)cc1 [Example 4, 2-[4-(8-Pyridin-3-ylethynyl-imidazo[4,5-c]quinolin-1-yl)-phenyl]-ethylamine] | ≤ 500 nM
NCCCc1ccc(-n2cnc3cnc4ccc(C#Cc5ccc(S(N)(=O)=O)cc5)cc4c32)cc1 [Example 13, 4-{1-[4-(3-Amino-propyl)-phenyl]-1H-imidazo[4,5-c]quinolin-8-ylethynyl}-benzenesulfonamide] | ≤ 500 nM
NCCCc1ccc(-n2cnc3cnc4ccc(/C=C/c5ccccc5)cc4c32)cc1 [Example 38, 3-[4-(8-trans-Styryl-imidazo[4,5-c]quinolin-1-yl)-phenyl]-propylamine] | ≤ 500 nM
COc1ccc(C#Cc2ccc3ncc4ncn(-c5ccc(CCN)cc5)c4c3c2)cc1 [Example 3, 2-{4-[8-(4-Methoxy-phenylethynyl)-imidazo[4,5-c]quinolin-1-yl]-phenyl}-ethylamine] | ≤ 500 nM
COc1cccc(C#Cc2cc3c(cc2F)ncc2ncn(-c4ccc(CCN)cc4)c23)c1 [Example 27, 2-{4-[7-Fluoro-8-(3-methoxy-phenylethynyl)-imidazo[4,5-c]quinolin-1-yl]-phenyl}-ethylamine] | 500 to 1000 nM
NCCCc1ccc(-n2cnc3cnc4ccc(C#Cc5ccccc5)cc4c32)cc1 [Example 8, 3-[4-(8-Phenylethynyl-imidazo[4,5-c]quinolin-1-yl)-phenyl]-propylamine] | ≤ 500 nM
NCCc1ccc(-n2cnc3cnc4cc(F)c(C#Cc5cccnc5)cc4c32)cc1 [Example 29, 2-[4-(7-Fluoro-8-pyridin-3-ylethynyl-imidazo[4,5-c]quinolin-1-yl)-phenyl]-ethylamine] | 500 to 1000 nM
NCCCc1ccc(-n2cnc3cnc4ccc(C#Cc5ccc6c(c5)OCO6)cc4c32)cc1 [Example 12, 3-[4-(8-Benzo[1,3]dioxol-5-ylethynyl-imidazo[4,5-c]quinolin-1-yl)-phenyl]-propylamine] | ≤ 500 nM
COc1ccc(C#Cc2ccc3ncc4nc(C)n(-c5ccc(CCN)cc5)c4c3c2)cc1 [Example 34, 2-{4-[8-(4-Methoxy-phenylethynyl)-2-methyl-imidazo[4,5-c]quinolin-1-yl]-phenyl}-ethylamine] | ≤ 500 nM
NCCCc1ccc(-n2cnc3cnc4ccc(C#Cc5cccnc5)cc4c32)cc1 [Example 11, 3-[4-(8-Pyridin-3-ylethynyl-imidazo[4,5-c]quinolin-1-yl)-phenyl]-propylamine] | ≤ 500 nM
Cc1nc2cnc3ccc(C#Cc4cccnc4)cc3c2n1-c1ccc(CCN)cc1 [Example 35, 2-[4-(2-Methyl-8-pyridin-3-ylethynyl-imidazo[4,5-c]quinolin-1-yl)-phenyl]-ethylamine] | ≤ 500 nM
NCCCc1ccc(-n2cnc3cnc4cc(Cl)c(C#Cc5cccnc5)cc4c32)cc1 [Example 23, 3-[4-(7-Chloro-8-pyridin-3-ylethynyl-imidazo[4,5-c]quinolin-1-yl)-phenyl]-propylamine] | 500 to 1000 nM
COc1cccc(C#Cc2ccc3ncc4nc(C)n(-c5ccc(CCN)cc5)c4c3c2)c1 [Example 33, 2-{4-[8-(3-Methoxy-phenylethynyl)-2-methyl-imidazo[4,5-c]quinolin-1-yl]-phenyl}-ethylamine] | 500 to 1000 nM
NCCc1ccc(-n2cnc3cnc4cc(F)c(C#Cc5ccc6c(c5)OCO6)cc4c32)cc1 [Example 30, 2-[4-(7-Fluoro-8-benzo[1,3]dioxol-5-ylethynyl-imidazo[4,5-c]quinolin-1-yl)-phenyl]-ethylamine] | 500 to 1000 nM
COc1ccc(C#Cc2ccc3ncc4ncn(-c5ccc(CCCN)cc5)c4c3c2)cc1 [Example 10, 3-{4-[8-(4-Methoxy-phenylethynyl)-imidazo[4,5-c]quinolin-1-yl]-phenyl}-propylamine] | ≤ 500 nM
COc1ccc(C#Cc2cc3c(cc2F)ncc2ncn(-c4ccc(CCN)cc4)c23)cc1 [Example 28, 2-{4-[7-Fluoro-8-(4-methoxy-phenylethynyl)-imidazo[4,5-c]quinolin-1-yl]-phenyl}-ethylamine] | ≤ 500 nM
